Assays:
[1] = target: DCAF15/RBM39 (Homo sapiens, UniProt Q14498+Q66K64); assay: AlphaLISA compound-induced DCAF15-RBM39 ternary complex formation; format: binding; settings: His-tagged DCAF15 complex and biotin-carrying RBM39
Experimental: Example 6: Quantitative Evaluation of Compound-Induced Ternary Complex Formation Using Amplified Luminescent Proximity Homogeneous Assay
Compound-induced DCAF15-RBM39 ternary complex formation was monitored using AlphaLISA® assays (Perkin Elmer, Waltham, MA). Test compounds were first collected in a 384-well microplate (cat. #781280, Grenier Bio-One, Monroe, NC) as 2 mM stocks in 100% dimethyl sulfoxide (DMSO). These stocks were then serially diluted in DMSO by 3-fold into a new plate (cat. #781280, Grenier Bio-One, Monroe, NC) using a Mosquito HTS dispenser (mosquito@ HTS, SPT Labtech, Boston, MA). 0.2 ul of these diluted stocks were then dispensed into a 384-well Optiplate (cat. #6007290, Perkin Elmer, Waltham, MA) in duplicate wells, to assemble the final assay plate consisting of duplicated dose ranges. Separately, a protein mixture consisting of His-tagged DCAF15 complex and biotin-carrying RBM39, each at 408 nM (2.04×), was prepared in 50 mM HEPES, pH 7.5, 100 mM NaCl, 2 mM MgCl2, 0.1% BSA, 2 mM TCEP, 0.05% Tween-20 (dilution buffer). 9.8 ul of this protein mixture was then mixed with the compounds in the assay plate and incubated for one hour at room temperature. Reaction mixtures with no compounds added were included as negative controls, while a His-tagged and biotinylated GST protein was included to track general assay performance. Nickel Chelate AlphaLISA Acceptor beads (cat. #AL108M, Perkin Elmer, MA) and AlphaScreen Streptavidin Donor beads (cat. #6760002, Perkin Elmer, Waltham, MA) were prepared separately in the dilution buffer as 4× stocks (80 ug/ml). The beads were then added to the assay plate sequentially with incubation at room temperature for 1-2 hours after each addition. Signals were recorded using EnVision 2104 Multilabel Plate Reader (Perkin Elmer, Waltham, MA) and titration curves were generated in GraphPad Prism (7.00, GraphPad, La Jolla, CA).

[2] = target: DCAF15 (Homo sapiens, UniProt Q66K64); assay: HTRF competition assay, binary interaction between compounds and DCAF15; format: binding; settings: competition with Alexa Fluor 647 tracer, His-tagged DCAF15 complex
Experimental: Example 7: Measurement of Binary Interaction Between Compounds And DCAF15 Using Homogeneous Time Resolved Fluorescence (HTRF)
DCAF15 interactions with test compounds were monitored using HTRF competition assays (Cisbio, Bedford, MA). Test compounds were first collected in a 384-well microplate (cat. #781280, Grenier Bio-One, Monroe, NC) as 10 mM stocks in 100% dimethyl sulfoxide (DMSO). A second stock plate (cat. #781280, Grenier Bio-One, Monroe, NC) was prepared through 3-fold serial dilution in DMSO of the afore-mentioned stocks using a Mosquito HTS dispenser (mosquito@ HTS, SPT Labtech, Boston, MA). 0.2 ul of these diluted stocks were then dispensed into a 384-well Optiplate (cat. #6007290, Perkin Elmer, Waltham, MA) in duplicate wells, to assemble the assay plate. The tracer molecule containing an Alexa Fluor 647 probe was prepared in 25 mM HEPES pH 7.5, 100 mM NaCl, 0.1 mg/ml BSA, 0.005% Tween 20, 0.5 mM TCEP (dilution buffer) to 612 nM (2.04×). Separately, His-tagged DCAF15 complex was prepared at 32 nM (4×) in the dilution buffer, and mAb Anti-6His-Eu cryptate Gold (cat. #61H12KLA, Cisbio, Bedford, MA) at 4× dilution in the detection buffer (cat. #61 DB9RDF, Cisbio, Bedford, MA). These two solutions were mixed and incubated for 15 min at room temperature. 9.8 ul of the tracer solution and 10 ul of the DCAF15/mAb Anti-6His-Eu cryptate Gold mixture were added sequentially to each well in the assay plate. Reaction mixtures with no DCAF15 added were included as positive controls. The final mixture was incubated for an hour at room temperature and spun down briefly before data collection at 615 nm and 666 nm using En Vision 2104 Multilabel Plate Reader (Perkin Elmer, Bedford, MA). Binding was estimated based on ratiometric analysis and titration curves were generated in GraphPad Prism (7.00, GraphPad, La Jolla, CA).

Row | EC50 [1] [µM] | IC50 [2] [µM] | SMILES
1 | < 1 | 1 to 10 | COCCOCCCNC(=O)c1cccc(S(=O)(=O)Nc2ccc(Cl)c3c(Cl)c[nH]c23)c1F [Compound 202]
2 | 1 to 10 | 1 to 10 | CC[C@H](NC(=O)c1ccc(S(=O)(=O)Nc2ccc(Cl)c3c(Cl)c[nH]c23)c(F)c1)c1ccc2c(c1)OCCO2 [Compound 211]
3 | < 1 | 1 to 10 | CCc1nc(CN(C)C(=O)c2ccc(S(=O)(=O)Nc3ccc(Cl)c4c(Cl)c[nH]c34)c(F)c2)no1 [Compound 177]
4 | > 100 | > 100 | Cc1ccccc1Oc1ccccc1CNC(=O)c1ccc(S(=O)(=O)Nc2ccc(Cl)c3c(Cl)c[nH]c23)c(F)c1 [Compound 173]
5 | < 1 | 1 to 10 | COCCOCCCNC(=O)c1ccc(S(=O)(=O)Nc2ccc(Cl)c3c(Cl)c[nH]c23)c(F)c1 [Compound 203]
6 | > 100 | < 1 | Cc1cnc(CNC(=O)c2ccc(S(=O)(=O)Nc3ccc(Cl)c4c(Cl)c[nH]c34)c(F)c2)cn1 [Compound 184]
7 | < 1 | 1 to 10 | CNC(=O)c1cccc(S(=O)(=O)Nc2ccc(Cl)c3c(Cl)c[nH]c23)c1F [Compound 236]
8 | < 1 | 1 to 10 | Cc1cc(CNC(=O)c2cccc(S(=O)(=O)Nc3ccc(Cl)c4c(Cl)c[nH]c34)c2F)nn1C [Compound 174]
9 | < 1 | > 100 | CC(C)CNC(=O)c1ccc(S(=O)(=O)Nc2ccc(Cl)c3c(Cl)c[nH]c23)cc1 [Compound 239]
10 | 1 to 10 | 1 to 10 | COCCOc1ccc(S(=O)(=O)Nc2ccc(Cl)c3c(Cl)c[nH]c23)cc1Br [Compound 231]
11 | < 1 | 1 to 10 | CC(C)C[C@H](NC(=O)c1cccc(S(=O)(=O)Nc2ccc(Cl)c3c(Cl)c[nH]c23)c1F)c1nc2ccccc2[nH]1 [Compound 213]
12 | 1 to 10 | 10 to 100 | O=C(c1ccc(S(=O)(=O)Nc2ccc(Cl)c3c(Cl)c[nH]c23)c(F)c1)N1CC(N2CCc3ccccc32)C1 [Compound 215]
13 | 1 to 10 | 1 to 10 | CC(C)C(=O)Nc1cccc(CNC(=O)c2ccc(S(=O)(=O)Nc3ccc(Cl)c4c(Cl)c[nH]c34)c(F)c2)c1 [Compound 169]
14 | 1 to 10 | 1 to 10 | CC(C)CCOc1ccc(S(=O)(=O)Nc2ccc(Cl)c3c(Cl)c[nH]c23)cc1 [Compound 230]
15 | < 1 | < 1 | Cc1nc2c(n1C)CCN(C(=O)c1ccc(S(=O)(=O)Nc3ccc(Cl)c4c(Cl)c[nH]c34)c(F)c1)C2 [Compound 229]
16 | < 1 | < 1 | O=C(NCCCC(=O)N1CCCC1)c1cccc(S(=O)(=O)Nc2ccc(Cl)c3c(Cl)c[nH]c23)c1F [Compound 206]
17 | > 100 | > 100 | O=C(c1ccc(S(=O)(=O)Nc2ccc(Cl)c3c(Cl)c[nH]c23)c(F)c1)N1CCC(c2ccnc(C(F)F)c2)CC1 [Compound 222]
18 | < 1 | < 1 | O=C(NCC1CCN(CCCc2ccccc2)CC1)c1ccc(S(=O)(=O)Nc2ccc(Cl)c3c(Cl)c[nH]c23)c(F)c1 [Compound 167]
19 | < 1 | 1 to 10 | CN(C)C(=O)C[C@H](NC(=O)c1ccc(S(=O)(=O)Nc2ccc(Cl)c3c(Cl)c[nH]c23)c(F)c1)c1ccccc1 [Compound 197]
20 | < 1 | 1 to 10 | Cc1ccnc(CNC(=O)c2ccc(S(=O)(=O)Nc3ccc(Cl)c4c(Cl)c[nH]c34)c(F)c2)c1 [Compound 179]

More lines, now with the values behind:

Row | SMILES | EC50 [1] [µM] | IC50 [2] [µM]
21 | O=C(OCc1ccccc1)N1C[C@@H]2[C@@H](COc3cccc(S(=O)(=O)Nc4ccc(Cl)c5c(Cl)c[nH]c45)c3)[C@@H]2C1 [Compound 49] | 1 to 10 | > 100
22 | O=S(=O)(Nc1ccc(Cl)c2c(Cl)c[nH]c12)c1cccc(OC2CCC3(CC2)CNC3)c1 [Compound 26] | < 1 | 10 to 100
23 | O=S(=O)(Nc1ccc(Cl)c2c(Cl)c[nH]c12)c1ccc(OCCCC2CCNCC2)cc1 [Compound 99] | < 1 | 1 to 10
24 | CN1CC[C@@H](c2ccc(F)cc2)[C@H](COc2ccc(S(=O)(=O)Nc3ccc(Cl)c4c(Cl)c[nH]c34)cc2)C1 [Compound 42] | 1 to 10 | 1 to 10
25 | O=S(=O)(Nc1ccc(Cl)c2c(Cl)c[nH]c12)c1cccc(OCc2cccc(OC(F)F)c2)c1 [Compound 53] | 1 to 10 | > 100
26 | O=S(=O)(Nc1ccc(Cl)c2c(Cl)c[nH]c12)c1cccc(OCCCN2CC3(COC3)C2)c1 [Compound 108] | < 1 | > 100
27 | O=S(=O)(Nc1ccc(Cl)c2c(Cl)c[nH]c12)c1ccc(Oc2ccc(Br)cc2)cc1 [Compound 35] | 10 to 100 | > 100
28 | O=S(=O)(Nc1ccc(Cl)c2c(Cl)c[nH]c12)c1cccc(O[C@@H]2C[C@@H]3C[C@@H]3C2)c1 [Compound 20] | 1 to 10 | > 100
29 | O=S(=O)(Nc1ccc(Cl)c2c(Cl)c[nH]c12)c1cccc(OC[C@H]2[C@@H]3CNC[C@@H]32)c1 [Compound 47] | < 1 | 10 to 100
30 | Cn1cc(CCOc2cccc(S(=O)(=O)Nc3ccc(Cl)c4c(Cl)c[nH]c34)c2)c2ccccc21 [Compound 92] | 10 to 100 | > 100
31 | O=S(=O)(Nc1ccc(Cl)c2c(Cl)c[nH]c12)c1cccc(OCCCC2CCNCC2)c1 [Compound 98] | 1 to 10 | 10 to 100
32 | CN1CC[C@@H](c2ccc(F)cc2)[C@H](COc2cccc(S(=O)(=O)Nc3ccc(Cl)c4c(Cl)c[nH]c34)c2)C1 [Compound 41] | < 1 | 1 to 10
33 | O=S(=O)(Nc1ccc(Cl)c2c(Cl)c[nH]c12)c1ccc(OC[C@@H]2CCCNC2)cc1 [Compound 46] | 1 to 10 | 10 to 100
34 | NC1CCC(Oc2ccc(S(=O)(=O)Nc3ccc(Cl)c4c(Cl)c[nH]c34)cc2)CC1 (stereo not drawn) [Compound 3] | < 1 | 1 to 10
35 | O=S(=O)(Nc1ccc(Cl)c2c(Cl)c[nH]c12)c1ccc(OC2CC3(CNC3)C2)cc1 [Compound 25, 4-((2-azaspiro[3.3]heptan-6-yl)oxy)-N-(3,4-dichloro-1H-indol-7-yl)benzenesulfonamide] | < 1 | 1 to 10
36 | O=S(=O)(Nc1ccc(Cl)c2c(Cl)c[nH]c12)c1cccc(OCc2ccc3c(c2)CNC3)c1 [Compound 65] | < 1 | > 100
37 | CC1(CCOc2ccc(S(=O)(=O)Nc3ccc(Cl)c4c(Cl)c[nH]c34)cc2)CCNCC1 [Compound 75] | < 1 | 1 to 10
38 | CNCCCCCOc1ccc(S(=O)(=O)Nc2ccc(Cl)c3c(Cl)c[nH]c23)cc1 [Compound 144] | < 1 | 1 to 10
39 | O=S(=O)(Nc1ccc(Cl)c2c(Cl)c[nH]c12)c1cccc(O[C@H]2CC[C@H](OCc3ccccc3)CC2)c1 [Compound 18] | > 100 | > 100
40 | O=S(=O)(Nc1ccc(Cl)c2c(Cl)c[nH]c12)c1ccc(Oc2ccc(F)cc2)cc1 [Compound 36] | 1 to 10 | 10 to 100
41 | CC1(CCOc2cccc(S(=O)(=O)Nc3ccc(Cl)c4c(Cl)c[nH]c34)c2)CCNCC1 [Compound 74] | < 1 | 10 to 100
42 | O=S(=O)(Nc1ccc(Cl)c2c(Cl)c[nH]c12)c1cccc(O[C@H]2CC[C@H](N3CCOCC3)CC2)c1 [Compound 16] | < 1 | 1 to 10
